Test results: patent US9572343B2, “Active compound combinations” (BAYER CROPSCIENCE AG, priority 2012, dated 2017)
Where two headings read alike, the source gives them in different places.

Tests used:
Format in all cases: in vivo
Phakopsora pachyrhizi = assay: Phakopsora test (soybeans)/preventive
Alternaria solani = assay: Alternaria test (tomatoes)/preventive
Protocol: (§1) Solvent: 24.5 parts by weight of acetone • 24.5 parts by weight of dimethylacetamide
(§2) Emulsifier: 1 part by weight of alkylaryl polyglycol ether
(§3) To produce a suitable preparation of active compound, 1 part by weight of active compound is mixed with the stated amounts of solvent and emulsifier, and the concentrate is diluted with water to the desired concentration.
To test for preventive activity, young plants are sprayed with the preparation of active compound at the stated rate of application. After the spray coating has dried on, the plants are inoculated with an aqueous spore suspension of Alternaria solani. The plants are then placed in an incubation cabinet at approximately 20° C. and a relative atmospheric humidity of 100%.
The test is evaluated 3 days after the inoculation. 0% means an efficacy which corresponds to that of the untreated control while an efficacy of 100% means that no disease is observed.

[1] = test system: Blumeria graminis f.sp. hordei; assay: Blumeria test (barley)/preventive; settings: Table B1
Protocol: (§4) Solvent: 49 parts by weight of N,N-dimethylacetamide Emulsifier: 1 part by weight of alkylaryl polyglycol ether To produce a suitable preparation of active compound, 1 part by weight of active compound or active compound combination is mixed with the stated amounts of solvent and emulsifier, and the concentrate is diluted with water to the desired concentration. To test for preventive activity, young plants are sprayed with the preparation of active compound or active compound combination at the stated rate of application. After the spray coating has been dried, the plants are dusted with spores of Blumeria graminis f.sp. hordei.

Uromyces appendiculatus = assay: Uromyces test (beans)/preventive
Protocol: as §1, §2, §3
To test for preventive activity, young plants are sprayed with the preparation of active compound at the stated rate of application. After the spray coating has dried on, the plants are inoculated with an aqueous spore suspension of the causal agent of bean rust (Uromyces appendiculatus) and then remain for 1 day in an incubation cabinet at approximately 20° C. and a relative atmospheric humidity of 100%.
The plants are then placed in a greenhouse at approximately 21° C. and a relative atmospheric humidity of approximately 90%.
The test is evaluated 10 days after the inoculation. 0% means an efficacy which corresponds to that of the untreated control, while an efficacy of 100% means that no disease is observed.

Venturia inaequalis = assay: Venturia test (apples)/preventive; settings: Table I1
Protocol: Solvent: 24.5 parts by weight of acetone • 24.5 parts by weight of dimethylacetamide Emulsifier: 1 part by weight of alkylaryl polyglycol ether To produce a suitable preparation of active compound, 1 part by weight of active compound is mixed with the stated amounts of solvent and emulsifier, and the concentrate is diluted with water to the desired concentration. To test for preventive activity, young plants are sprayed with the preparation of active compound at the stated rate of application.

Pyrenophora teres = assay: Pyrenophora teres-test (barley)/preventive; settings: Table E1
Protocol: Solvent: 49 parts by weight of N,N-dimethylacetamide
as §2
To produce a suitable preparation of active compound, 1 part by weight of active compound or active compound combination is mixed with the stated amounts of solvent and emulsifier, and the concentrate is diluted with water to the desired concentration.
To test for preventive activity, young plants are sprayed with the preparation of active compound or active compound combination at the stated rate of application.
After the spray coating has been dried, the plants are sprayed with a spore suspension of Pyrenophora teres. The plants remain for 48 hours in an incubation cabinet at approximately 20° C. and a relative atmospheric humidity of approximately 100%.
The plants are placed in the greenhouse at a temperature of approximately 20° C. and a relative atmospheric humidity of approximately 80%.
The test is evaluated 8 days after the inoculation. 0% means an efficacy which corresponds to that of the untreated control, while an efficacy of 100% means that no disease is observed.

Septoria tritici = assay: Septoria tritici-test (wheat)/preventive; settings: Table F1; application rate 80 ppm a.i.
Protocol: as §4, with “sprayed” for “dusted”, “a spore suspension” for “spores”, “Septoria tritici.” for “Blumeria graminis f.sp. hordei.”

[2] = Phakopsora pachyrhizi, 168 h, Table D1, application rate 0.5 ppm a.i., read-out: Efficacy in % found
[3] = Table A1, application rate 0.5 ppm a.i.
[4] = Table D1, application rate 0.5 ppm a.i.
[5] = Table H1, application rate 0.25 ppm a.i.

CC(C)CC(C)c1sccc1NC(=O)c1cn(C)nc1C(F)(F)F (stereo not drawn) [2.21, penthiopyrad]
pest or weed control at 0.5 ppm (Phakopsora pachyrhizi; [2]): 0%
Efficacy in % found (Alternaria solani; [3]): 27%
Efficacy in % found ([1]; application rate 80 ppm a.i.): 20%
pest or weed control at 0.25 ppm (Uromyces appendiculatus; Uromyces appendiculatus, 240 h, Table H1, application rate 0.25 ppm a.i., read-out: Efficacy in % found): 30%

CC1CC(C)(C)c2cccc(NC(=O)c3cn(C)nc3C(F)F)c21 (stereo not drawn) [2.32, 3-(difluoromethyl)-1-methyl-N-(1,1,3-trimethyl-2,3-dihydro-1H-inden-4-yl)-1H-pyrazole-4-carboxamide]
pest or weed control at 0.5 ppm (Phakopsora pachyrhizi; Phakopsora pachyrhizi, 168 h, read-out: Efficacy in % found): 15%
Efficacy in % found (Alternaria solani; [3]): 18%
Efficacy in % found ([1]; application rate 80 ppm a.i.): 20%
Efficacy in % found (Venturia inaequalis; application rate 1 ppm a.i.): 39%
pest or weed control at 0.25 ppm (Uromyces appendiculatus; Uromyces appendiculatus, 240 h, read-out: Efficacy in % found): 75%
Efficacy in % found (Pyrenophora teres; application rate 80 ppm a.i.): 0%

CC(C)(C)C(O)(CCc1ccc(Cl)cc1)Cn1cncn1 (stereo not drawn) [1.47, tebuconazole]
pest or weed control at 1 ppm (Phakopsora pachyrhizi; Phakopsora pachyrhizi, 168 h, Table D2, application rate 1 ppm a.i., read-out: Efficacy in % found): 50%
Efficacy in % found (Septoria tritici): 14%

CO/N=C(/C1=NOCCO1)c1ccccc1Oc1ncnc(Oc2ccccc2Cl)c1F [3.12, fluoxastrobin]
Efficacy in % found (Venturia inaequalis; application rate 0.5 ppm a.i.): 30%
pest or weed control at 0.5 ppm (Uromyces appendiculatus; Uromyces appendiculatus, 240 h, Table H2, application rate 0.5 ppm a.i., read-out: Efficacy in % found): 65%
Efficacy in % found (Pyrenophora teres; application rate 20 ppm a.i.): 16%

Cn1cc(C(=O)Nc2ccc(F)cc2-c2ccc(Cl)c(Cl)c2)c(C(F)F)n1 [2.1, bixafen]
Efficacy in % found (Phakopsora pachyrhizi; [4]): 0%
Efficacy in % found (Alternaria solani; [3]): 43%
Efficacy in % found (Venturia inaequalis; application rate 1 ppm a.i.): 36%
Efficacy in % found (Uromyces appendiculatus; [5]): 30%
Efficacy in % found (Pyrenophora teres; application rate 80 ppm a.i.): 86%

Cn1cc(C(=O)Nc2cccc3c2[C@@H]2CC[C@H]3C2=C(Cl)Cl)c(C(F)F)n1 (racemic) [2.29, benzovindiflupyr]
Efficacy in % found (Phakopsora pachyrhizi; [4]): 8%
Efficacy in % found (Alternaria solani; [3]): 40%
Efficacy in % found ([1]; application rate 40 ppm a.i.): 0%
Efficacy in % found (Pyrenophora teres; application rate 40 ppm a.i.): 0%

CO/C=C(/C(=O)OC)c1ccccc1COc1cccc(C(F)(F)F)n1 [3.16, picoxystrobin]
Efficacy in % found (Phakopsora pachyrhizi; Table D1, application rate 0.25 ppm a.i.): 8%
Efficacy in % found ([1]; application rate 40 ppm a.i.): 50%
Efficacy in % found (Uromyces appendiculatus; Table H2, application rate 2.5 ppm a.i.): 65%
Efficacy in % found (Pyrenophora teres; application rate 40 ppm a.i.): 71%

CO/C=C(/C(=O)OC)c1ccccc1Oc1cc(Oc2ccccc2C#N)ncn1 [3.3, azoxystrobin]
Efficacy in % found (Phakopsora pachyrhizi; Table D3, application rate 0.5 ppm a.i.): 68%
Efficacy in % found (Alternaria solani; Table A2, application rate 5 ppm a.i.): 35%
Efficacy in % found (Venturia inaequalis; application rate 0.5 ppm a.i.): 88%
Efficacy in % found (Pyrenophora teres; application rate 20 ppm a.i.): 57%

O=C(NCCc1ncc(C(F)(F)F)cc1Cl)c1ccccc1C(F)(F)F [2.6, fluopyram]
pest or weed control at 2 ppm (Phakopsora pachyrhizi; Phakopsora pachyrhizi, 168 h, Table D1, application rate 2 ppm a.i., read-out: Efficacy in % found): 0%
Efficacy in % found (Alternaria solani; Table A1, application rate 2 ppm a.i.): 34%
Efficacy in % found ([1]; application rate 40 ppm a.i.): 0%
pest or weed control at 1 ppm (Uromyces appendiculatus; Uromyces appendiculatus, 240 h, Table H1, application rate 1 ppm a.i., read-out: Efficacy in % found): 15%
Efficacy in % found (Pyrenophora teres; application rate 40 ppm a.i.): 57%

CC(C)c1ccc(Cl)cc1CN(C(=O)c1c(C(F)F)nn(C)c1F)C1CC1 [15.151, N-(5-chloro-2-isopropylbenzyl)-N-cyclopropyl-3-(difluoromethyl)-5-fluoro-1-methyl-1H-pyrazole-4-carboxamide]
pest or weed control at 0.5 ppm (Phakopsora pachyrhizi; [2]): 0%
Efficacy in % found ([1]; application rate 20 ppm a.i.): 20%
Efficacy in % found (Pyrenophora teres; application rate 20 ppm a.i.): 86%

Cn1cc(C(=O)Nc2ccccc2-c2cc(F)c(F)c(F)c2)c(C(F)F)n1 [2.8, fluxapyroxad]
Efficacy in % found (Phakopsora pachyrhizi; [4]): 0%
Efficacy in % found (Alternaria solani; [3]): 58%
Efficacy in % found ([1]; application rate 40 ppm a.i.): 30%
Efficacy in % found (Uromyces appendiculatus; [5]): 0%
Efficacy in % found (Pyrenophora teres; application rate 80 ppm a.i.): 57%
